Where two headings read alike, the source gives them in different places.
Legend:
Type in all cases: in vivo
[1] = system: large (Lg) crabgrass (Digitaria sanguinalis); assay: Test B pre-/postemergence plant response; conditions: Digitaria sanguinalis, 240 h, read-out: Plant response rating, Crabgrass, Large; for pest or weed control at 125 g/ha: 125 g ai/ha; for pest or weed control at 500 g/ha: 500 g ai/ha
Summary of the method: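 Ratings reflect visual injury versus untreated controls, from 0 for no effect to 100 for complete control, assessed roughly 10 days after treatment. Formulation: non-phytotoxic solvent mix with surfactant; pre- and postemergence sprays on plants grown in loam soil and sand.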

[2] = system: waterhemp_RES1 (ALS & Triazine resistant common waterhemp, Amaranthus rudis); assay: Test F postemergence plant response; conditions: scale 0 to 100
Protocol: (§1) At the same time, plants from these crop and weed species and also waterhemp_RES1, (ALS & Triazine resistant common waterhemp, Amaranthus rudis), and waterhemp_RES2, (ALS & HPPD resistant common waterhemp, Amaranthus rudis) were treated with postemergence applications of test chemicals formulated in the same manner. Plants ranged in height from 2 to 18 cm for postemergence treatments (1- to 4-leaf stage).
(§2) Treated plants and controls were maintained in a greenhouse for 14 to 21 days, after which time all species were compared to controls and visually evaluated. Plant response ratings, summarized in Table F, are based on a scale of 0 to 100 where 0 is no effect and 100 is complete control. A dash (-) response means no test result.

[3] = system: waterhemp_RES2 (ALS & HPPD resistant common waterhemp, Amaranthus rudis); assay: Test F postemergence plant response; conditions: scale 0 to 100
Protocol: as §1, §2

[4] = system: blackgrass (Alopecurus myosuroides); assay: Test E pre-/postemergence plant response; conditions: scale 0 to 100, read-out: Plant response rating, Blackgrass; for pest or weed control at 16 g/ha: 16 g ai/ha; for pest or weed control at 31 g/ha: 31 g ai/ha; for pest or weed control at 62 g/ha: 62 g ai/ha; for pest or weed control at 125 g/ha: 125 g ai/ha
Source text: (§3) Seeds of plant species selected from bluegrass (annual bluegrass, Poa annua), blackgrass (Alopecurus myosuroides), canarygrass (Phalaris minor), chickweed (common chickweed, Stellaria media), galium (catchweed bedstraw, Galium aparine), downy bromegrass (Bromus tectorum), field poppy (Papaver rhoeas), field violet (Viola arvensis), green foxtail (Setaria viridis), deadnettle (henbit deadnettle, Lamium amplexicaule), Italian ryegrass (Lolium multiflorum), kochia (Kochia scoparia), lambsquarters (Chenopodium album), oilseed rape (Brassica napus), pigweed (Amaranthus retroflexus), Russian thistle (Salsola iberica), chamomile (scentless chamomile, Matricaria inodora), speedwell (bird's-eye speedwell, Veronica persica), spring barley (Hordeum vulgare), spring wheat (Triticum aestivum), wild buckwheat (Polygonum convolvulus), wild mustard (Sinapis arvensis), wild oat (Avena fatua), wild radish (Raphanus raphanistrum), windgrass (Apera spica-venti), winter barley (Hordeum vulgare), and winter wheat (Triticum aestivum) were planted into a silt loam soil and treated preemergence with test chemicals formulated in a non-phytotoxic solvent mixture which included a surfactant. At the same time, these species were planted in pots containing Redi-Earth® planting medium (Scotts Company, 14111 Scottslawn Road, Marysville, Ohio 43041) comprising spaghnum peat moss, vermiculite, wetting agent and starter nutrients and treated with postemergence applications of the test chemicals formulated in the same manner. Plants ranged in height from 2 to 18 cm (1- to 4-leaf stage).
(§4) Treated plants and controls were maintained in a controlled growth environment for 7 to 21 days after which time all species were compared to controls and visually evaluated. Plant response ratings, summarized in Table E, are based on a scale of 0 to 100 where 0 is no effect and 100 is complete control. A dash (-) response means no test result.

[5] = system: bluegrass (annual bluegrass, Poa annua); assay: Test E pre-/postemergence plant response; conditions: scale 0 to 100, read-out: Plant response rating, Bluegrass; for pest or weed control at 16 g/ha: 16 g ai/ha; for pest or weed control at 31 g/ha: 31 g ai/ha; for pest or weed control at 62 g/ha: 62 g ai/ha; for pest or weed control at 125 g/ha: 125 g ai/ha
Source text: as §3, §4

[6] = system: canarygrass (Phalaris minor); assay: Test E pre-/postemergence plant response; conditions: scale 0 to 100, read-out: Plant response rating, Canarygrass; for pest or weed control at 16 g/ha: 16 g ai/ha; for pest or weed control at 31 g/ha: 31 g ai/ha; for pest or weed control at 62 g/ha: 62 g ai/ha; for pest or weed control at 125 g/ha: 125 g ai/ha
Source text: as §3, §4

[7] = system: winter wheat (Triticum aestivum); assay: Test E pre-/postemergence plant response; conditions: scale 0 to 100, read-out: Plant response rating, Wheat, Winter; for plant injury at 16 g/ha: 16 g ai/ha; for plant injury at 62 g/ha: 62 g ai/ha; for plant injury at 125 g/ha: 125 g ai/ha
Source text: as §3, §4

[8] = system: spring barley (Hordeum vulgare); assay: Test E pre-/postemergence plant response; conditions: for plant injury at 16 g/ha: 16 g ai/ha; for plant injury at 31 g/ha: 31 g ai/ha; for plant injury at 62 g/ha: 62 g ai/ha; for plant injury at 125 g/ha: 125 g ai/ha
Source text: as §3, §4

[9] = pre-emergence, Preemergence, 0 to 100 scale where 0 is no effect and 100 is complete control
[10] = post-emergence, Postemergence, scale 0 to 100, read-out: Plant response rating, Barley, Spring
[11] = pre-emergence, Preemergence, scale 0 to 100, read-out: Plant response rating, Barley, Spring

In the case of `FC(F)c1cc(-c2ccccc2Oc2ncc(Br)cn2)no1` [Compound 62, 5-bromo-2-[2-[5-(difluoromethyl)-3-isoxazolyl]phenoxy]pyrimidine], the pest or weed control at 125 g/ha ([1]; post-emergence, postemergence, 0 to 100 scale, 0 no effect, 100 complete control) is reported as 70%, the pest or weed control at 500 g/ha ([1]; post-emergence, Postemergence, 0 to 100 scale (0 no effect, 100 complete control)) is reported as 90% and the pest or weed control at 125 g/ha [1, 9] is reported as 100%. For the same compound, the pest or weed control at 500 g/ha [1, 9] was 100%, the “Plant response rating, Waterhemp_RES1” value ([2]; 8 g ai/ha Postemergence) was 80 and the “Plant response rating, Waterhemp_RES1” value ([2]; 16 g ai/ha Postemergence) was 85. For the same compound, the “Plant response rating, Waterhemp_RES1” value ([2]; 31 g ai/ha Postemergence) was 100, the “Plant response rating, Waterhemp_RES1” value ([2]; 62 g ai/ha Postemergence) was 100 and the “Plant response rating, Waterhemp_RES1” value ([2]; 125 g ai/ha Postemergence) was 100. The “Plant response rating, Waterhemp_RES2” value ([3]; 8 g ai/ha Postemergence) was 80, the “Plant response rating, Waterhemp_RES2” value ([3]; 16 g ai/ha Postemergence) was 80 and the “Plant response rating, Waterhemp_RES2” value ([3]; 31 g ai/ha Postemergence) was 100. For the same compound, the “Plant response rating, Waterhemp_RES2” value ([3]; 62 g ai/ha Postemergence) was 100, the “Plant response rating, Waterhemp_RES2” value ([3]; 125 g ai/ha Postemergence) was 100 and the pest or weed control at 16 g/ha ([4]; post-emergence, Postemergence) was 15%. It also gave a pest or weed control at 31 g/ha ([4]; post-emergence, Postemergence) of 30%, a pest or weed control at 62 g/ha ([4]; post-emergence, Postemergence) of 40% and a pest or weed control at 125 g/ha ([4]; post-emergence, Postemergence) of 75%. It also gave a pest or weed control at 16 g/ha ([4]; pre-emergence, Preemergence) of 5%, a pest or weed control at 31 g/ha ([4]; pre-emergence, Preemergence) of 15% and a pest or weed control at 62 g/ha ([4]; pre-emergence, Preemergence) of 15%. The pest or weed control at 125 g/ha ([4]; pre-emergence, Preemergence) was 65%, the pest or weed control at 16 g/ha ([5]; post-emergence, Postemergence) was 10% and the pest or weed control at 31 g/ha ([5]; post-emergence, Postemergence) was 35%. For the same compound, the pest or weed control at 62 g/ha ([5]; post-emergence, Postemergence) was 55%, the pest or weed control at 125 g/ha ([5]; post-emergence, Postemergence) was 60% and the pest or weed control at 16 g/ha ([5]; pre-emergence, Preemergence) was 0%. The pest or weed control at 31 g/ha ([5]; pre-emergence, Preemergence) was 5%, the pest or weed control at 62 g/ha ([5]; pre-emergence, Preemergence) was 10% and the pest or weed control at 125 g/ha ([5]; pre-emergence, Preemergence) was 75%. It also gave a pest or weed control at 16 g/ha ([6]; post-emergence, Postemergence) of 25%, a pest or weed control at 31 g/ha ([6]; post-emergence, Postemergence) of 35% and a pest or weed control at 62 g/ha ([6]; post-emergence, Postemergence) of 45%. The pest or weed control at 125 g/ha ([6]; post-emergence, Postemergence) was 55%, the pest or weed control at 16 g/ha ([6]; pre-emergence, Preemergence) was 0% and the pest or weed control at 31 g/ha ([6]; pre-emergence, Preemergence) was 0%. For the same compound, the pest or weed control at 62 g/ha ([6]; pre-emergence, Preemergence) was 50%, the pest or weed control at 125 g/ha ([6]; pre-emergence, Preemergence) was 90% and the plant injury at 16 g/ha ([7]; post-emergence, Postemergence) was 10%. For the same compound, the plant injury at 31 g/ha ([7]; post-emergence, 31 g ai/ha, Postemergence) was 20%, the plant injury at 62 g/ha ([7]; post-emergence, Postemergence) was 30% and the plant injury at 125 g/ha ([7]; post-emergence, Postemergence) was 35%. The plant injury at 16 g/ha ([7]; pre-emergence, Preemergence) was 0%, the plant injury at 62 g/ha ([7]; pre-emergence, Preemergence) was 0% and the plant injury at 125 g/ha ([7]; pre-emergence, Preemergence) was 5%. It also gave a plant injury at 16 g/ha [8, 10] of 10%, a plant injury at 31 g/ha [8, 10] of 15% and a plant injury at 62 g/ha [8, 10] of 20%. For the same compound, the plant injury at 125 g/ha ([8]; post-emergence, Postemergence, scale 0 to 100 (0 no effect, 100 complete control), read-out: Plant response rating, Barley, Spring) was 25%, the plant injury at 16 g/ha [8, 11] was 0% and the plant injury at 31 g/ha [8, 11] was 0%. The plant injury at 62 g/ha [8, 11] was 0% and the plant injury at 125 g/ha [8, 11] was 0%.
